Data taken from patent publication US5229267A, “Assay for evaluating inhibition of PMN elastase by N-substituted azetidinones” (Merck & Co., Inc., priority 1991, dated 1993).

Tested on: antibody R674
Assay: RIA: displacement of tritium labeled Compound A' or B' from polyclonal rabbit antiserum R674
Type: binding, New Zealand white rabbits
Conditions: up to 10 μM (the highest concentration tested)
Description: Antibodies for the reactivation product of formula II were produced by the methods described in Basic methodology of Vituakaitis, Meth. Enzymol. 73: 46-52 (1981). Specifically, New Zealand white rabbits were immunized with Compound C (the para succinyl aminomethyl derivative of compound B'), coupled to thyroglobulin. See Scheme 3. The initial immunizations employed 1 mg of the immunogen conjugate per ml saline homogenized with 1 ml of Freund's complete adjuvant. Rabbits received a total of 0.4 ml divided over 2 intramuscular sites. Animals were boosted 30 days later receiving 0.5 mg immunogen per ml saline homogenized with 1 ml Freund's Incomplete adjuvant. […]
Antibody titer, antibody sensitivity, antibody specificity and the presence of and concentration of reactivation product in body fluids were determined by a radioimmunoassay (RIA). […]
Non-antibody-bound radioactive isotope was removed from the reaction mixture by it's absorption onto dextran-coated activated charcoal. […] The supernatant fluid was decanted into 9 ml of AQUASOL-2 scintillation fluid and radioactivity counted in a beta-counter. […] Percent specific binding was determined by subtracting the value for non-specific binding from the value of total antiserum binding and then dividing by the total radioactivity added.
Sensitivity of the antisera R674 (2nd bleed) was determined in the above RIA. […]

Structure (SMILES) | effect in RIA (displacement)
N=C(N)NCCC[C@H](N)C(=O)O [arginine] | without affect
NC(N)=O [Urea, urea] | without affect
